Test results as given in patent publication US5449677A, “Cyclic benzylamino, benzylamido and benzylimido antipsychotic agents” (McNeilab, Inc., priority 1993, dated 1995).
Where a name gives a salt, the structure may show the parent alone.

Assay: Block of Conditioned Avoidance Responding (Rat) test (CAR)
Assay type: in vivo, male Fischer 344 rats
Details: po, read-out: % inhibition CAR
Procedure: The sessions consist of 60 trials, one every minute.
% change CAR=((Day 2% CAR/Day 1% CAR)×100)-100
Failure to escape was calculated for each animal as follows:
% Failures=#of Failures to Escape/#of trials

Row | SMILES | change in vivo at 5 mg/kg [%]
1 | CC(C)Oc1ccccc1N1CCN(Cc2cccc(CN3CCCCC3=O)c2)CC1 [CP #1, 1-[[3-[[1-[2-(1-Methylethoxy)phenyl]-4-piperazinyl]methyl]phenyl]methyl]piperidin-2-one Hydrochloride (3:2)] | -89
2 | CC(C)Oc1ccccc1N1CCN(Cc2ccc(CN3CCCCC3=O)cc2)CC1 [CP #2, 1-[[4-[[1-[2-(1-Methylethoxy)phenyl]-4-piperazinyl]methyl]phenyl]methyl]-piperidin-2-one Hydrochloride (5:1)] | -29
3 | CC(C)Oc1ccccc1N1CCN(Cc2ccccc2CN2CCCCC2=O)CC1 [CP #3, 1-[[2-[[1-[2-(1-Methylethoxy)phenyl]-4-piperazinyl]methyl]phenyl]methyl]-piperidin-2-one Hydrochloride (3:2)] | -6
